ChEMBL document CHEMBL3734713, “4-Thiazolidinone derivatives as potent antimicrobial agents: microwave-assisted synthesis, biological evaluation and docking studies” (2015)
Values after ≈ are worked out from the molar mass of the structure shown.

What was measured:
Salmonella typhimurium = assay: Antibacterial activity against Salmonella typhimurium ATCC 13311 assessed as growth inhibition after 24 hrs at 37 degC by iodonitrotetrazolium chloride staining based microdilution broth assay; assay type: functional, Salmonella enterica subsp. enterica serovar Typhimurium; settings: Salmonella enterica, ATCC 13311, 24 h
Aspergillus ochraceus = assay: Antifungal activity against Aspergillus ochraceus ATCC 12066 assessed as growth inhibition after 72 hrs at 28 degC by serial dilution method; assay type: functional; settings: for MIC: Aspergillus ochraceus, ATCC 12066, 72 h
Listeria monocytogenes = assay: Antibacterial activity against Listeria monocytogenes NCTC 7973 assessed as growth inhibition after 24 hrs at 37 degC by iodonitrotetrazolium chloride staining based microdilution broth assay; assay type: functional; settings: NCTC 7973, 24 h
Escherichia coli = assay: Antibacterial activity against Escherichia coli ATCC 35210 assessed as growth inhibition after 24 hrs at 37 degC by iodonitrotetrazolium chloride staining based microdilution broth assay; assay type: functional; settings: ATCC 35210, 24 h
Candida albicans = assay: Antifungal activity against Candida albicans ATCC 10231 assessed as growth inhibition after 72 hrs at 28 degC by serial dilution method; assay type: functional; settings: for MIC: Candida albicans, ATCC 10231, 72 h
Trichoderma viride = assay: Antifungal activity against Trichoderma viride IAM 5061 assessed as growth inhibition after 72 hrs at 28 degC by serial dilution method; assay type: functional; settings: for MIC: Trichoderma viride, IAM 5061, 72 h
Staphylococcus aureus = assay: Antibacterial activity against Staphylococcus aureus ATCC 6538 assessed as growth inhibition after 24 hrs at 37 degC by iodonitrotetrazolium chloride staining based microdilution broth assay; assay type: functional; settings: ATCC 6538, 24 h
Penicillium ochrochloron = assay: Antifungal activity against Penicillium ochrochloron ATCC 9112 assessed as growth inhibition after 72 hrs at 28 degC by serial dilution method; assay type: functional; settings: for MIC: Penicillium ochrochloron, ATCC 9112, 72 h
Micrococcus flavus = assay: Antibacterial activity against Micrococcus flavus ATCC 10240 assessed as growth inhibition after 24 hrs at 37 degC by iodonitrotetrazolium chloride staining based microdilution broth assay; assay type: functional; settings: ATCC 10240, 24 h
Bacillus cereus = assay: Antibacterial activity against clinical isolates of Bacillus cereus assessed as growth inhibition after 24 hrs at 37 degC by iodonitrotetrazolium chloride staining based microdilution broth assay; assay type: functional
Aspergillus niger = assay: Antifungal activity against Aspergillus niger ATCC 6275 assessed as growth inhibition after 72 hrs at 28 degC by serial dilution method; assay type: functional; settings: for MIC: Aspergillus niger, ATCC 6275, 72 h
Aspergillus fumigatus = assay: Antifungal activity against Aspergillus fumigatus ATCC 1022 assessed as growth inhibition after 72 hrs at 28 degC by serial dilution method; assay type: functional; settings: for MIC: Aspergillus fumigatus, ATCC 1022, 72 h
Pseudomonas aeruginosa = assay: Antibacterial activity against Pseudomonas aeruginosa ATCC 27853 assessed as growth inhibition after 24 hrs at 37 degC by iodonitrotetrazolium chloride staining based microdilution broth assay; assay type: functional; settings: ATCC 27853, 24 h
Enterobacter cloacae = assay: Antibacterial activity against human isolate of Enterobacter cloacae assessed as growth inhibition after 24 hrs at 37 degC by iodonitrotetrazolium chloride staining based microdilution broth assay; assay type: functional
Aspergillus versicolor = assay: Antifungal activity against Aspergillus versicolor ATCC 11730 assessed as growth inhibition after 72 hrs at 28 degC by serial dilution method; assay type: functional; settings: for MIC: Aspergillus versicolor, ATCC 11730, 72 h
[1] = molecular target: Human immunodeficiency virus type 1 reverse transcriptase (Human immunodeficiency virus 1) (UniProt Q72547); assay: Inhibition of HIV1 reverse transcriptase assessed as residual enzyme activity by measuring reduction in [3H]dTTP incorporation into poly(rA)-oligo(dT) at 4 uM incubated for 15 mins by scintillation counting method relative to control
Talaromyces funiculosus = assay: Antifungal activity against Penicillium funiculosum ATCC 36839 assessed as growth inhibition after 72 hrs at 28 degC by serial dilution method; assay type: functional; settings: for MIC: Talaromyces funiculosus, ATCC 36839, 72 h

Compound | MBC (Salmonella typhimurium) | MIC (Salmonella typhimurium) | MFC99.5 (Aspergillus ochraceus) | MIC (Aspergillus ochraceus) | MBC (Listeria monocytogenes) | MIC (Listeria monocytogenes) | MBC (Escherichia coli) | MIC (Escherichia coli) | MFC99.5 (Candida albicans) | MIC (Candida albicans) | MFC99.5 (Trichoderma viride) | MIC (Trichoderma viride) | MBC (Staphylococcus aureus) | MIC (Staphylococcus aureus) | MFC99.5 (Penicillium ochrochloron) | MIC (Penicillium ochrochloron) | MBC (Micrococcus flavus) | MIC (Micrococcus flavus) | MBC (Bacillus cereus) | MIC (Bacillus cereus) | further results
O=C1CSC(c2cccc(Cl)c2Cl)N1c1nc(C23CC4CC(CC(C4)C2)C3)cs1 (centres undefined) | 62.5 µM (≈ 29.1 µg/mL) | 15.3 µM (≈ 7.12 µg/mL) | 0.06 ×10⁻² umol/ml | 0.42 µM (≈ 0.195 µg/mL) | 125 µM (≈ 58.2 µg/mL) | 62.5 µM (≈ 29.1 µg/mL) | 125 µM (≈ 58.2 µg/mL) | 62.5 µM (≈ 29.1 µg/mL) | 1.075 ×10⁻² umol/ml | 5.3 µM (≈ 2.47 µg/mL) | 0.06 ×10⁻² umol/ml | 0.21 µM (≈ 0.0977 µg/mL) | 15.3 µM (≈ 7.12 µg/mL) | 9 µM (≈ 4.19 µg/mL) | 0.06 ×10⁻² umol/ml | 0.21 µM (≈ 0.0977 µg/mL) | 62.5 µM (≈ 29.1 µg/mL) | 30.6 µM (≈ 14.2 µg/mL) | 62.5 µM (≈ 29.1 µg/mL) | 30.6 µM (≈ 14.2 µg/mL) | MFC99.5 (Aspergillus niger): 0.06 ×10⁻² umol/ml; MIC (Aspergillus niger): 0.21 µM (≈ 0.0977 µg/mL); MFC99.5 (Aspergillus fumigatus): 0.06 ×10⁻² umol/ml; MIC (Aspergillus fumigatus): 0.42 µM (≈ 0.195 µg/mL); MBC (Pseudomonas aeruginosa): 62.5 µM (≈ 29.1 µg/mL); MIC (Pseudomonas aeruginosa): 15.3 µM (≈ 7.12 µg/mL); MBC (Enterobacter cloacae): 62.5 µM (≈ 29.1 µg/mL); MIC (Enterobacter cloacae): 30.6 µM (≈ 14.2 µg/mL); MFC99.5 (Aspergillus versicolor): 0.06 ×10⁻² umol/ml; MIC (Aspergillus versicolor): 0.21 µM (≈ 0.0977 µg/mL); Activity [1]: 100%; MFC99.5 (Talaromyces funiculosus): 0.06 ×10⁻² umol/ml; MIC (Talaromyces funiculosus): 0.42 µM (≈ 0.195 µg/mL)
O=C1CSC(c2c(Cl)cccc2Cl)N1c1nc(C23CC4CC(CC(C4)C2)C3)cs1 (centres undefined) | 430 µM (≈ 200 µg/mL) | 215 µM (≈ 100 µg/mL) | 53.71 ×10⁻² umol/ml | 107 µM (≈ 50 µg/mL) | 860 µM (≈ 400 µg/mL) | 430 µM (≈ 200 µg/mL) | 430 µM (≈ 200 µg/mL) | 215 µM (≈ 100 µg/mL) | 64.45 ×10⁻² umol/ml | 430 µM (≈ 200 µg/mL) | 21.48 ×10⁻² umol/ml | 215 µM (≈ 100 µg/mL) | 645 µM (≈ 300 µg/mL) | 430 µM (≈ 200 µg/mL) | 32.22 ×10⁻² umol/ml | 215 µM (≈ 100 µg/mL) | 430 µM (≈ 200 µg/mL) | 215 µM (≈ 100 µg/mL) | 645 µM (≈ 300 µg/mL) | 430 µM (≈ 200 µg/mL) | MFC99.5 (Aspergillus niger): 32.22 ×10⁻² umol/ml; MIC (Aspergillus niger): 215 µM (≈ 100 µg/mL); MFC99.5 (Aspergillus fumigatus): 53.71 ×10⁻² umol/ml; MIC (Aspergillus fumigatus): 215 µM (≈ 100 µg/mL); MBC (Pseudomonas aeruginosa): 645 µM (≈ 300 µg/mL); MIC (Pseudomonas aeruginosa): 430 µM (≈ 200 µg/mL); MBC (Enterobacter cloacae): 430 µM (≈ 200 µg/mL); MIC (Enterobacter cloacae): 430 µM (≈ 200 µg/mL); MFC99.5 (Aspergillus versicolor): 32.22 ×10⁻² umol/ml; MIC (Aspergillus versicolor): 215 µM (≈ 100 µg/mL); Activity [1]: 52.5%; MFC99.5 (Talaromyces funiculosus): 53.71 ×10⁻² umol/ml; MIC (Talaromyces funiculosus): 215 µM (≈ 100 µg/mL)
O=C1CSC(c2ccc([N+](=O)[O-])cc2)N1c1nc(C23CC4CC(CC(C4)C2)C3)cs1 (centres undefined) | 125 µM (≈ 55.2 µg/mL) | 30.6 µM (≈ 13.5 µg/mL) | 0.28 ×10⁻² umol/ml | 1.4 µM (≈ 0.618 µg/mL) | 125 µM (≈ 55.2 µg/mL) | 61.2 µM (≈ 27 µg/mL) | 125 µM (≈ 55.2 µg/mL) | 85 µM (≈ 37.5 µg/mL) | 2.26 ×10⁻² umol/ml | 11.3 µM (≈ 4.99 µg/mL) | 0.28 ×10⁻² umol/ml | 1.4 µM (≈ 0.618 µg/mL) | 61.2 µM (≈ 27 µg/mL) | 30.6 µM (≈ 13.5 µg/mL) | 0.28 ×10⁻² umol/ml | 1.4 µM (≈ 0.618 µg/mL) | 125 µM (≈ 55.2 µg/mL) | 61.2 µM (≈ 27 µg/mL) | 30.6 µM (≈ 13.5 µg/mL) | 16.2 µM (≈ 7.18 µg/mL) | MFC99.5 (Aspergillus niger): 0.56 ×10⁻² umol/ml; MIC (Aspergillus niger): 3.5 µM (≈ 1.55 µg/mL); MFC99.5 (Aspergillus fumigatus): 4.52 ×10⁻² umol/ml; MIC (Aspergillus fumigatus): 11.3 µM (≈ 4.99 µg/mL); MBC (Pseudomonas aeruginosa): 125 µM (≈ 55.2 µg/mL); MIC (Pseudomonas aeruginosa): 30.6 µM (≈ 13.5 µg/mL); MBC (Enterobacter cloacae): 62.5 µM (≈ 27.6 µg/mL); MIC (Enterobacter cloacae): 30.6 µM (≈ 13.5 µg/mL); MFC99.5 (Aspergillus versicolor): 1.13 ×10⁻² umol/ml; MIC (Aspergillus versicolor): 5.6 µM (≈ 2.47 µg/mL); Activity [1]: 99.3%; MFC99.5 (Talaromyces funiculosus): 0.14 ×10⁻² umol/ml; MIC (Talaromyces funiculosus): 0.7 µM (≈ 0.309 µg/mL)
